Experimental data as given in US12581252B2, “Substituted pyrrolo[3,4-b]pyridines as PI3K-α inhibitors” (Relay Therapeutics, Inc., priority 2020, dated 2026).

Biological target: H1047R PIK3CA enzyme (Homo sapiens, UniProt P42336, H1047R)
Assay: ADP-Glo Biochemical PIK3CA Kinase Assay

Chain of H1047R PIK3CA enzyme (P42336 whole entry H1047R): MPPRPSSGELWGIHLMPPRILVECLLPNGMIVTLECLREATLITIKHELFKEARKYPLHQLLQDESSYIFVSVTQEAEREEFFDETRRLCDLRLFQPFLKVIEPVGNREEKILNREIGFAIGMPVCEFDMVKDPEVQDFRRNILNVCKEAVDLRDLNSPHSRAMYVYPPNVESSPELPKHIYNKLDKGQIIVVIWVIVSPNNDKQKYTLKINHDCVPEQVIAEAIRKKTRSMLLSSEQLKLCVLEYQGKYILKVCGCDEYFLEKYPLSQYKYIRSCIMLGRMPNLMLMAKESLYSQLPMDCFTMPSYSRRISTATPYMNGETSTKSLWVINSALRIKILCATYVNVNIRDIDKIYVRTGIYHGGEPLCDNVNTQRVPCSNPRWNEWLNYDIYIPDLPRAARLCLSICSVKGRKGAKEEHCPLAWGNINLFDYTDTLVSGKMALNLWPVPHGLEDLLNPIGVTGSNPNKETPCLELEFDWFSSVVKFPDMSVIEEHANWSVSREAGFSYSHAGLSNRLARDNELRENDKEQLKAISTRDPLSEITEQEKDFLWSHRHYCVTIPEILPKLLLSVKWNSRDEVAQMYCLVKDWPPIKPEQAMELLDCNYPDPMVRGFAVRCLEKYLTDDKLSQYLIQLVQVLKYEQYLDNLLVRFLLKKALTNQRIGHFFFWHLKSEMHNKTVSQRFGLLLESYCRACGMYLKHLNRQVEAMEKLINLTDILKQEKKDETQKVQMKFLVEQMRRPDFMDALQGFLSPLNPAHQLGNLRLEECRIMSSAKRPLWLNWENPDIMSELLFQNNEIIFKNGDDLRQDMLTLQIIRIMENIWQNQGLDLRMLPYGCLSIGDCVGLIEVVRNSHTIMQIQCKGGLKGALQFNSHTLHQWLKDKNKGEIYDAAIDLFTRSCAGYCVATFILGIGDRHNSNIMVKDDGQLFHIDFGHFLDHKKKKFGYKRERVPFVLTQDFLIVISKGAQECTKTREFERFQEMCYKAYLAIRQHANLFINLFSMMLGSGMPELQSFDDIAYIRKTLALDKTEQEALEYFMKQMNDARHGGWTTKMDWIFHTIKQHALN
Chain of H1047R PIK3CA enzyme (P27986 whole entry partner): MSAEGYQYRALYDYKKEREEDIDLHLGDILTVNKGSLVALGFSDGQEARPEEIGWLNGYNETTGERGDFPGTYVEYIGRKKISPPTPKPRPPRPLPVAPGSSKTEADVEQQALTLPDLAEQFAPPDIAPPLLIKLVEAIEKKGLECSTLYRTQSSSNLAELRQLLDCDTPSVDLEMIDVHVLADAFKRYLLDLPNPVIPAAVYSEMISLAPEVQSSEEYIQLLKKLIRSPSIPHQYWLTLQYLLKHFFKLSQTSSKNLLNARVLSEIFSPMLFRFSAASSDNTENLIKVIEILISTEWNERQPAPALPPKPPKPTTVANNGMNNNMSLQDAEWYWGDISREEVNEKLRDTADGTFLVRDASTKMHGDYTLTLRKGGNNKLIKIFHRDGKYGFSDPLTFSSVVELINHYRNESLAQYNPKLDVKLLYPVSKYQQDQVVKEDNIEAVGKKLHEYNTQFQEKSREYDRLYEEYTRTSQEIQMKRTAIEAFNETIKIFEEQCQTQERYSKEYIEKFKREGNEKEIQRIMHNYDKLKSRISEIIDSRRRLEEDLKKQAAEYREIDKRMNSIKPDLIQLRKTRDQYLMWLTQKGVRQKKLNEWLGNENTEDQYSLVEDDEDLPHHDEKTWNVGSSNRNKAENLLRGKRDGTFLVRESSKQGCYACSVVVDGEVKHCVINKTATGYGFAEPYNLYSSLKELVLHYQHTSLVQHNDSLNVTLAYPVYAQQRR

First: O=C(Nc1cnc(N2CCOCC2)c2c1C(c1cc(F)ccc1Cl)NC2=O)c1cc(F)cc(C(F)(F)F)c1 (stereo not shown) [Compound I-255]
Second: O=C(Nc1cc(CC2(CO)COC2)cc2c1C(c1cc(F)ccc1Cl)NC2=O)c1cc(F)cc(C(F)(F)F)c1 (stereo not shown) [Compound I-1339]
The IC50 of the first is higher: 1 to 10 µM for the first, ≤ 0.1 µM for the second.

O=C(Nc1cc(C2CC(F)(F)C2)cc2c1C(c1cc(F)ccc1Cl)NC2=O)c1cc(F)cc(C(F)(F)F)c1 (stereo not shown) [Compound I-779] and O=C(Nc1cc(NC2CCC2(F)F)cc2c1C(c1cc(F)ccc1Cl)NC2=O)c1cc(F)cc(C(F)(F)F)c1 (stereo not shown) [Compound I-530] cannot be ordered by IC50: ≤ 0.1 µM for the first, ≤ 0.1 µM for the second.

O=C1NC(c2cc(F)ccc2Cl)c2c(NC(=O)N3CCCCc4ccccc43)cccc21 (stereo not shown) [Compound I-2306] and N#Cc1cccc2c1CCN2C(=O)Nc1cccc2c1C(c1cc(F)ccc1Cl)NC2=O (stereo not shown) [Compound I-2425] fall in the same range of IC50: 10 to 100 µM for the first, 10 to 100 µM for the second.

O=C(Nc1cc(-c2cc(F)c3ncnn3c2)cc2c1[C@H](c1cc(F)ccc1Cl)NC2=O)c1cc(F)cc(C(F)(F)F)c1 [Compound I-1704] and O=C(Nc1cc(-c2ccnc(C(F)F)c2)cc2c1C(c1cc(F)ccc1Cl)NC2=O)c1cc(F)cc(C(F)(F)F)c1 (stereo not shown) [Compound I-1933] cannot be ordered by IC50: ≤ 0.1 µM for the first, ≤ 0.1 µM for the second.

Compared with Cc1ccccc1C1NC(=O)c2cccc(NC(=O)C(F)(F)F)c21 (stereo not shown) [Compound I-16], O=C(Nc1cccc2c1C(c1ccccc1)NC2=O)c1cc(F)cc(C(F)(F)F)c1 (stereo not shown) [Compound I-1805] is lower in IC50: 10 to 100 µM for the first, 1 to 10 µM for the second.

First: CC1(C(=O)Nc2cc(Br)cc3c2C(c2cc(F)ccc2Cl)NC3=O)CCCc2ccccc21 (stereo not shown) [Compound I-634]
Second: O=C1NC(c2cc(F)ccc2Cl)c2c(Nc3nsc4ccccc34)cc(Br)cc21 (stereo not shown) [Compound I-1060]
The IC50 of the first is lower: 1 to 10 µM for the first, 10 to 100 µM for the second. The first is the more potent here.

O=C(Nc1cc(-c2ccc3nc(C(F)F)cn3c2)cc2c1C(c1cc(F)ccc1Cl)NC2=O)c1cc(F)cc(C(F)(F)F)c1 (stereo not shown) [Compound I-1864] and CCn1cc(-c2cc(NC(=O)c3cc(F)cc(C(F)(F)F)c3)c3c(c2)C(=O)NC3c2cc(F)ccc2Cl)ccc1=O (stereo not shown) [Compound I-649] cannot be ordered by IC50: ≤ 0.1 µM for the first, ≤ 0.1 µM for the second.

First: COc1cccc(-c2cc(NC(=O)c3cc(F)cc(C(F)(F)F)c3)c3c(c2)C(=O)NC3c2cc(F)ccc2Cl)n1 (stereo not shown) [Compound I-891]
Second: O=C(Nc1cc(-c2ccc3nccn3n2)cc2c1[C@@H](c1cc(F)ccc1Cl)NC2=O)c1cc(F)cc(C(F)(F)F)c1 [Compound I-1331]
The IC50 of the first is lower: ≤ 0.1 µM for the first, 1 to 10 µM for the second.

CC(=O)Nc1cc(NC(=O)c2cc(F)cc(C(F)(F)F)c2)c2c(c1)C(=O)NC2c1cc(F)ccc1Cl (stereo not shown) [Compound I-423] and Cn1nccc1C(=O)c1cc(NC(=O)c2cc(F)cc(C(F)(F)F)c2)c2c(c1)C(=O)NC2c1cc(F)ccc1Cl (stereo not shown) [Compound I-1380] cannot be ordered by IC50: ≤ 0.1 µM for the first, ≤ 0.1 µM for the second.

First: Cc1ccccc1C1NC(=O)c2cc(C(F)F)cc(NC(=O)c3cc(F)cc(C(F)(F)F)c3)c21 (stereo not shown) [Compound I-692]
Second: Cc1ccccc1C1NS(=O)(=O)c2cccc(NC(=O)c3cc(F)cc(C(F)(F)F)c3)c21 (stereo not shown) [Compound I-535]
The IC50 of the first is lower: 0.1 to 0.5 µM for the first, 1 to 10 µM for the second. The first is the more potent here.

First: O=C1NC(c2cc(F)ccc2Cl)c2c(NC(=O)c3csc4cocc34)cccc21 (stereo not shown) [Compound I-2301]
Second: O=C(Nc1cccc2c1C(c1cc(F)ccc1Cl)NC2=O)c1cc(F)ccc1NC1CCC1 (stereo not shown) [Compound I-872]
The IC50 of the first is higher: 10 to 100 µM for the first, 1 to 10 µM for the second.

O=C(Nc1cc(/N=C2/N[C@@H](C(F)(F)F)CO2)cc2c1[C@@H](c1cc(F)ccc1Cl)NC2=O)c1cc(F)cc(C(F)(F)F)c1 (single isomer, unassigned) [Compound I-2390] and O=C(Nc1cc(NC2=NC[C@H](C(F)(F)F)O2)cc2c1[C@@H](c1cc(F)ccc1Cl)NC2=O)c1cc(F)cc(C(F)(F)F)c1 (single isomer, unassigned) [Compound I-2325] fall in the same range of IC50: 1 to 10 µM for the first, 1 to 10 µM for the second.

Compared with Cc1ccccc1[C@H]1NC(=O)c2nccc(NC(=O)N3CCc4ccccc43)c21 [Compound I-228], Cc1ccccc1[C@@H]1NC(=O)c2nccc(NC(=O)N3CCc4ccccc43)c21 [Compound I-227] is lower in IC50: 10 to 100 µM for the first, 0.1 to 0.5 µM for the second. The second is the more potent here.

O=C1NC(c2cc(F)ccc2Cl)c2c1cc(-c1ccc3ncnn3c1)cc2C1=CCCNC1 (stereo not shown) [Compound I-1998] and O=C1NC(c2cc(F)ccc2Cl)c2c(NC(=O)C3CCOCC3)cc(-c3ccc4ncnn4c3)cc21 (stereo not shown) [Compound I-1821] fall in the same range of IC50: 10 to 100 µM for the first, 10 to 100 µM for the second.

First: NS(=O)(=O)CCNC(=O)c1cc(NC(=O)c2cc(F)cc(C(F)(F)F)c2)c2c(c1)C(=O)NC2c1cc(F)ccc1Cl (stereo not shown) [Compound I-1469]
Second: O=C(Nc1cc(-c2ncc[nH]2)cc2c1[C@@H](c1cc(F)ccc1Cl)NC2=O)c1cc(F)cc(C(F)(F)F)c1 [Compound I-918]
The IC50 of the first is lower: ≤ 0.1 µM for the first, 0.5 to 1 µM for the second.

First: Cc1ccccc1C1NC(=O)c2cccc(NC(=O)C34CCC(C3)c3ccccc34)c21 (stereo not shown) [Compound I-226, N-(1-Oxo-3-(o-tolyl)isoindolin-4-yl)-1,2,3,4-tetrahydro-1,4-methanonaphthalene-1-carboxamide]
Second: Cc1ccccc1C1NC(=O)c2cccc(NCc3nsc4ccccc34)c21 (stereo not shown) [Compound I-145]
The IC50 of the first is lower: 1 to 10 µM for the first, 10 to 100 µM for the second.

O=C(Nc1cc(CS(=O)(=O)c2cccnc2)cc2c1C(c1cc(F)ccc1Cl)NC2=O)c1cc(F)cc(C(F)(F)F)c1 (stereo not shown) [Compound I-1536] and O=C(Nc1cc(-c2cnn(S(=O)(=O)C(F)F)c2)cc2c1[C@@H](c1cc(F)ccc1Cl)NC2=O)c1cc(F)cc(C(F)(F)F)c1 [Compound I-2092] cannot be ordered by IC50: ≤ 0.1 µM for the first, 0.1 to 0.5 µM for the second.

N#Cc1cccc(C2NC(=O)c3cccc(NC(=O)c4cc(F)cc(C(F)(F)F)c4)c32)c1 (stereo not shown) [Compound I-659] and O=C(Nc1cccc2c1[C@@H](C[C@@H]1CCCCN1)NC2=O)c1cc(F)cc(C(F)(F)F)c1 (single isomer, unassigned) [Compound I-2281] fall in the same range of IC50: 10 to 100 µM for the first, 10 to 100 µM for the second.

CC(C)(CNC(=O)Nc1cc(Br)cc2c1C(c1cc(F)ccc1Cl)NC2=O)C1(O)CCC1 (stereo not shown) [Compound I-1507] and O=C1NC(c2cc(F)ccc2Cl)c2c(NC(=O)[C@@H]3CC[C@@H](O)C3)cc(Br)cc21 (single isomer, unassigned) [Compound I-1976] fall in the same range of IC50: 10 to 100 µM for the first, 10 to 100 µM for the second.

O=C(Nc1cc(Br)cc2c1C(c1cc(F)ccc1Cl)NC2=O)c1cc(F)ccc1OC(F)(F)F (stereo not shown) [Compound I-788] and Cn1ccc2ccc(C(=O)Nc3cc(Br)cc4c3C(c3cc(F)ccc3Cl)NC4=O)cc21 (stereo not shown) [Compound I-668] fall in the same range of IC50: 1 to 10 µM for the first, 1 to 10 µM for the second.

First: O=C(Nc1cc(Br)cc2c1C(c1cc(F)ccc1Cl)NC2=O)c1ccc2nncn2c1 (stereo not shown) [Compound I-637]
Second: O=C(Nc1cc(-c2ccc3ncnn3c2)cc2c1[C@H](c1cc(F)ccc1Cl)NC2=O)c1cc(F)cc(OC(F)F)c1 (stereo in doubt) [Compound I-1169]
The IC50 of the first is higher: 10 to 100 µM for the first, 0.1 to 0.5 µM for the second. The second is the more potent here.

O=C1NC(c2cc(F)ccc2Cl)c2c(NC(=O)N3CC(O)c4cc(Cl)ccc43)cccc21 (mixture of isomers) [Compound I-2376] and O=C(Nc1cccc2c1C(c1cc(F)ccc1Cl)NC2=O)Nc1n[nH]c2ccccc12 (stereo not shown) [Compound I-2382] fall in the same range of IC50: 1 to 10 µM for the first, 1 to 10 µM for the second.

Compared with O=C1NC(c2cc(F)ccc2Cl)c2c(NC(=O)N3CC4C5CCC(C5)C43)cccc21 (stereo not shown) [Compound I-2429], O=C1N[C@@H](c2cc(F)ccc2Cl)c2c(NC(=O)N3C[C@@H](O)C[C@@H]3CC(F)(F)F)cccc21 (racemic) [Compound I-2164] is lower in IC50: 10 to 100 µM for the first, 1 to 10 µM for the second.

Compared with Cc1ccccc1C1NC(=O)c2cccc(-c3nnc(-c4ccccc4)[nH]3)c21 (stereo not shown) [Compound I-398], O=C(Nc1cccc(C(F)(F)F)c1)c1cccc2c1C(c1cc(F)ccc1Cl)NC2=O (stereo not shown) [Compound I-2189] is lower in IC50: 10 to 100 µM for the first, 1 to 10 µM for the second.

O=C(Nc1cccc2c1[C@H](C1CCC(F)(F)CC1)NC2=O)c1cc(F)cc(C(F)(F)F)c1 [Compound I-2073] and O=C(Nc1cccc2c1C(=O)NS2(=O)=O)c1cc(F)cc(C(F)(F)F)c1 [Compound I-472] fall in the same range of IC50: 10 to 100 µM for the first, 10 to 100 µM for the second.

COc1cnc2ccc(-c3cc(NC(=O)c4cc(F)cc(C(F)(F)F)c4)c4c(c3)C(=O)NC4c3cc(F)ccc3Cl)cc2c1 (stereo not shown) [Compound I-1602] and O=C(Nc1cc(-c2ccn3ccnc3c2)cc2c1C(c1cc(F)ccc1Cl)NC2=O)c1cc(F)cc(C(F)(F)F)c1 (stereo not shown) [Compound I-1372] cannot be ordered by IC50: ≤ 0.1 µM for the first, ≤ 0.1 µM for the second.

O=C(Nc1cc(-c2cn(C(F)F)cn2)cc2c1C(c1cc(F)ccc1Cl)NC2=O)c1cc(F)cc(C(F)(F)F)c1 (stereo not shown) [Compound I-1823] and CN1CC(COc2cc(NC(=O)c3cc(F)cc(C(F)(F)F)c3)c3c(c2)C(=O)NC3c2cc(F)ccc2Cl)CC1=O (mixture of isomers) [Compound I-1348] cannot be ordered by IC50: ≤ 0.1 µM for the first, ≤ 0.1 µM for the second.

First: O=C(Nc1cc(Br)cc2c1[C@@H](c1cc(F)c(F)cc1Cl)NC2=O)c1cc(F)cc(C(F)(F)F)c1 [Compound I-676]
Second: CC(C)(O)COc1cc(NC(=O)c2cc(F)cc(Cl)c2)c2c(c1)C(=O)NC2c1cc(F)ccc1Cl (stereo not shown) [Compound I-819]
The IC50 of the first is higher: 1 to 10 µM for the first, ≤ 0.1 µM for the second.

Compared with O=C1N[C@@H](c2cc(F)ccc2Cl)c2c(NC(=O)N3C[C@@](O)(C(F)(F)F)c4cc(F)ccc43)cc(C(F)F)cc21 (single isomer, unassigned) [Compound I-2578], CNc1cc(NC(=O)N2C[C@@](O)(C(F)(F)F)c3cc(F)ccc32)c2c(c1)C(=O)N[C@H]2c1cc(F)ccc1Cl (single isomer, unassigned) [Compound I-2642] is lower in IC50: 1 to 10 µM for the first, 0.1 to 0.5 µM for the second.

First: O/N=C(\Nc1cccc2c1C(c1cc(F)ccc1Cl)NC2=S)c1cc(F)cc(C(F)(F)F)c1 (stereo not shown) [Compound I-846]
Second: C[C@H](c1nn[nH]c1C(=O)Nc1cccc2c1[C@H](c1cc(F)ccc1Cl)NC2=O)C(F)(F)F (single isomer, unassigned) [Compound I-2269]
The IC50 of the first is lower: 0.5 to 1 µM for the first, 10 to 100 µM for the second.

First: O=C(Nc1cc(-c2ccc3ncnn3c2)nc2c1C(C1CCCC1)NC2=O)c1cc(F)cc(C(F)(F)F)c1 (stereo not shown) [Compound I-1654]
Second: O=C1N[C@@H](c2cc(F)ccc2Cl)c2c(NC(=O)N3C[C@@](O)(C(F)(F)F)c4cc(F)ccc43)cc(Cl)nc21 (single isomer, unassigned) [Compound I-2705]
The IC50 of the first is higher: 10 to 100 µM for the first, 1 to 10 µM for the second.

Compared with CNc1cc(NC(=O)N2C[C@@](O)(C(F)(F)F)c3cc(F)ccc32)c2c(n1)C(=O)N[C@H]2c1cc(F)ccc1Cl (single isomer, unassigned) [Compound I-2646], CS(=O)(=O)CC(O)c1cc(NC(=O)c2cc(F)cc(Cl)c2)c2c(c1)C(=O)NC2c1cc(F)ccc1Cl (stereo not shown) [Compound I-297] is lower in IC50: 0.5 to 1 µM for the first, 0.1 to 0.5 µM for the second.
